Values belong to the compound of their own block, whether it stands above or below them. Activity calls are given as the source filed them. No cut-off for these calls is given here.
Legend:
[1] = target: Signal transducer and activator of transcription 3 (Homo sapiens) (UniProt P40763); experiment: Inhibition of STAT3 in human MDA-MB-231 cells assessed as reduction in STAT-3 phosphorylation at 2.5 to 40 uM incubated for 8 hrs by Western blot analysis; format: cell-based; settings: dose 2.5-40 µM
Chain of Signal transducer and activator of transcription 3 (Homo sapiens) (P40763 whole entry): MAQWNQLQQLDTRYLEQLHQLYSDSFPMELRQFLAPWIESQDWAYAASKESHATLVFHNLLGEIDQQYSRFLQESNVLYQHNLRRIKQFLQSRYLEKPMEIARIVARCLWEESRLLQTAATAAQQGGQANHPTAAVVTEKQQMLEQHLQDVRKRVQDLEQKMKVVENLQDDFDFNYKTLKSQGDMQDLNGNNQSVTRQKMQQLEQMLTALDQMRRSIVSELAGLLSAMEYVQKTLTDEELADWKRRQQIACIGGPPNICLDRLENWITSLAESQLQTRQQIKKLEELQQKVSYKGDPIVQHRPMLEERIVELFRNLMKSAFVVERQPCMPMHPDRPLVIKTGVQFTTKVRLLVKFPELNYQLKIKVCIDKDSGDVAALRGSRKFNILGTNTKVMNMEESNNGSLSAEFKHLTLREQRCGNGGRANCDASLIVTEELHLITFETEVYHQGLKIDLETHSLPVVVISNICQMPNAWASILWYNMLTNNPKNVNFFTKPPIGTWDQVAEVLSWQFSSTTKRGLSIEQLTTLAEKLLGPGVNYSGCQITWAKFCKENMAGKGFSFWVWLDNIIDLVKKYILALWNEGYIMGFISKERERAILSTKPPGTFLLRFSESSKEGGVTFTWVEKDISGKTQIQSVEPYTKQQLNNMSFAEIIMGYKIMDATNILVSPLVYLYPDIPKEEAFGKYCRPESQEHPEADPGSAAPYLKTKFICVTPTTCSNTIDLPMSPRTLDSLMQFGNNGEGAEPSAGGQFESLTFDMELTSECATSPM

[2] = Inhibition of HDAC in human HeLa cell extracts assessed as inhibition of substrate deacetylation using Boc-Lys (q-Ac)-AMC as substrate incubated for 10 mins followed by substrate addition and measured after 30 mins by fluorescence based assay; format: tissue-based
[3] = system: 4T1; experiment: Induction of apoptosis in mouse 4T1 cells assessed as viable cells at 10 uM incubated for 72 hrs by annexinV-FITC and PI staining based flow cytometry analysis (reference value: 91.1 %); format: functional; settings: read-out: Activity
[4] = system: MDA-MB-231; experiment: Induction of apoptosis in human MDA-MB-231 cells assessed as viable cells at 10 uM incubated for 72 hrs by annexinV-FITC and PI staining based flow cytometry analysis (reference value: 90.3 %); format: functional; settings: read-out: Activity
[5] = system: MDA-MB-231; experiment: Induction of apoptosis in human MDA-MB-231 cells assessed as necrotic cells at 10 uM incubated for 72 hrs by annexinV-FITC and PI staining based flow cytometry analysis (reference value: 0.330 %); format: functional
[6] = system: 4T1; experiment: Induction of apoptosis in mouse 4T1 cells assessed as late apoptotic cells at 10 uM incubated for 72 hrs by annexinV-FITC and PI staining based flow cytometry analysis (reference value: 2.24 %); format: functional
[7] = system: 4T1; experiment: Induction of apoptosis in mouse 4T1 cells assessed as necrotic cells at 10 uM incubated for 72 hrs by annexinV-FITC and PI staining based flow cytometry analysis (reference value: 5.00 %); format: functional
[8] = system: 4T1; experiment: Induction of apoptosis in mouse 4T1 cells assessed as early apoptotic cells at 10 uM incubated for 72 hrs by annexinV-FITC and PI staining based flow cytometry analysis (reference value: 1.65 %); format: functional
[9] = system: MDA-MB-231; experiment: Induction of apoptosis in human MDA-MB-231 cells assessed as late apoptotic cells at 10 uM incubated for 72 hrs by annexinV-FITC and PI staining based flow cytometry analysis (reference value: 3.79 %); format: functional
[10] = system: MDA-MB-231; experiment: Induction of apoptosis in human MDA-MB-231 cells assessed as early apoptotic cells at 10 uM incubated for 72 hrs by annexinV-FITC and PI staining based flow cytometry analysis (reference value: 5.57 %); format: functional
[11] = system: 4T1; experiment: Induction of apoptosis in mouse 4T1 cells implanted in BALB/c mouse assessed as increase in caspase-3 cleavage by immunohistochemistry method; format: functional, cell-based
[12] = Genotoxicity in Salmonella typhimurium TA100 by Ames test; format: toxicity; settings: salmonella enterica subsp. enterica serovar typhimurium
[13] = system: 4T1; experiment: Induction of apoptosis in mouse 4T1 cells assessed as late apoptotic cells at 5 uM incubated for 72 hrs by annexinV-FITC and PI staining based flow cytometry analysis (reference value: 2.24 %); format: functional
[14] = system: MDA-MB-231; experiment: Induction of cell cycle arrest in human MDA-MB-231 cells assessed as G0/G1 phase accumulation at 2 uM incubated for 24 hrs by PI staining based flow cytometry analysis (reference value: 29.10 %); format: functional
[15] = system: MDA-MB-231; experiment: Induction of cell cycle arrest in human MDA-MB-231 cells assessed as S phase accumulation at 2 uM incubated for 24 hrs by PI staining based flow cytometry analysis (reference value: 43.82 %); format: functional
[16] = system: MDA-MB-231; experiment: Induction of apoptosis in human MDA-MB-231 cells assessed as necrotic cells at 5 uM incubated for 72 hrs by annexinV-FITC and PI staining based flow cytometry analysis (reference value: 0.330 %); format: functional
[17] = system: MDA-MB-231; experiment: Induction of apoptosis in human MDA-MB-231 cells xenografted in BALB/c mouse assessed as increase in caspase-3 cleavage by immunohistochemistry method; format: functional, cell-based
[18] = Genotoxicity in Salmonella typhimurium TA1535 by Ames test; format: toxicity; settings: salmonella enterica subsp. enterica serovar typhimurium
[19] = system: 4T1; experiment: Induction of apoptosis in mouse 4T1 cells assessed as early apoptotic cells at 5 uM incubated for 72 hrs by annexinV-FITC and PI staining based flow cytometry analysis (reference value: 1.65 %); format: functional
[20] = Genotoxicity in Salmonella typhimurium TA1537 by Ames test; format: toxicity; settings: salmonella enterica subsp. enterica serovar typhimurium
[21] = system: MDA-MB-231; experiment: Induction of apoptosis in human MDA-MB-231 cells assessed as early apoptotic cells at 5 uM incubated for 72 hrs by annexinV-FITC and PI staining based flow cytometry analysis (reference value: 5.57 %); format: functional
[22] = Genotoxicity in Salmonella typhimurium TA97a by Ames test; format: toxicity; settings: salmonella enterica subsp. enterica serovar typhimurium
[23] = Genotoxicity in Salmonella typhimurium TA98 by Ames test; format: toxicity; settings: salmonella enterica subsp. enterica serovar typhimurium
[24] = system: HepG2; experiment: Cytotoxicity against human HepG2 cells assessed as reduction in cell viability incubated for 48 hrs by MTT assay; format: functional, cell-based; settings: HepG2, 48 h
[25] = system: MDA-MB-231; experiment: Induction of cell cycle arrest in human MDA-MB-231 cells assessed as G2/M phase accumulation at 2 uM incubated for 24 hrs PI staining based by flow cytometry analysis (reference value: 27.08 %); format: functional
[26] = system: 4T1; experiment: Induction of apoptosis in mouse 4T1 cells assessed as viable cells at 5 uM incubated for 72 hrs by annexinV-FITC and PI staining based flow cytometry analysis (reference value: 91.1 %); format: functional; settings: read-out: Activity
[27] = system: MDA-MB-231; experiment: Induction of apoptosis in human MDA-MB-231 cells assessed as viable cells at 5 uM incubated for 72 hrs by annexinV-FITC and PI staining based flow cytometry analysis (reference value: 90.3 %); format: functional; settings: read-out: Activity
[28] = system: 4T1; experiment: Induction of cell cycle arrest in mouse 4T1 cells assessed as S phase accumulation at 2 uM incubated for 24 hrs by PI staining based flow cytometry analysis (reference value: 19.43 %); format: functional
[29] = system: T47D; experiment: Cytotoxicity against human T47D cells assessed as reduction in cell viability incubated for 48 hrs by MTT assay; format: functional, cell-based
[30] = system: MDA-MB-231; experiment: Induction of apoptosis in human MDA-MB-231 cells assessed as late apoptotic cells at 5 uM incubated for 72 hrs by annexinV-FITC and PI staining based flow cytometry analysis (reference value: 3.79 %); format: functional
[31] = system: 4T1; experiment: Induction of apoptosis in mouse 4T1 cells assessed as necrotic cells at 5 uM incubated for 72 hrs by annexinV-FITC and PI staining based flow cytometry analysis (reference value: 5.00 %); format: functional
[32] = Genotoxicity in Salmonella typhimurium WP2 uvrA (pKM 101) by Ames test; format: toxicity; settings: salmonella enterica subsp. enterica serovar typhimurium
[33] = system: 4T1; experiment: Induction of cell cycle arrest in mouse 4T1 cells assessed as G2/M phase accumulation at 2 uM incubated for 24 hrs by PI staining based flow cytometry analysis (reference value: 38.51 %); format: functional
[34] = system: 4T1; experiment: Induction of cell cycle arrest in mouse 4T1 cells assessed as G0/G1 phase accumulation at 2 uM incubated for 24 hrs by PI staining based flow cytometry analysis (reference value: 42.06 %); format: functional
[35] = Toxicity in C57BL/6 mouse assessed death of organism at 50 mg/kg, po observed for 20 days; format: organism-based; settings: in vivo, 480 h, time 20 day
[36] = target: Signal transducer and activator of transcription 3 (Homo sapiens) (UniProt P40763); experiment: Inhibition of STAT3 in human MDA-MB-231 cells assessed as reduction in STAT-3 phosphorylation incubated for 8 hrs by Western blot analysis; format: cell-based; settings: dose 2.5-20 µM
[37] = Toxicity in C57BL/6 mouse assessed death of organism at 300 mg/kg, ip observed for 24 hrs; format: organism-based; settings: in vivo

inhibition [1]: Active
Structure (SMILES): COC(=O)CCCCCOc1cc(O)c2c(=O)cc(-c3ccc(OCCN(C)C)cc3)oc2c1

IC50 [2]: 0.402 µM
Structure (SMILES): O=C(CCCCCCCOc1cc(O)c2c(=O)cc(-c3ccccc3)oc2c1)NO

IC50 [2]: 0.732 µM
Structure (SMILES): CN(C)CCOc1ccc(-c2cc(=O)c3c(O)cc(OCCCCCCC(=O)NO)cc3o2)cc1

IC50 [2]: 0.297 µM
Structure (SMILES): O=C(CCCCCOc1cc(O)c2c(=O)cc(-c3ccc(O)cc3)oc2c1)NO

IC50 [2]: 0.59 µM
Structure (SMILES): O=C(CCCCCOc1cc(O)c2c(=O)cc(-c3ccc(OCCN4CCOCC4)cc3)oc2c1)NO

IC50 [2]: 0.053 µM
Structure (SMILES): O=C(CCCCCOc1cc(O)c2c(=O)cc(-c3ccccc3)oc2c1)NO

IC50 [2]: > 10 µM
Structure (SMILES): COc1ccc(-c2coc3cc(OCCCCCCC(=O)NO)cc(O)c3c2=O)cc1

IC50 [2]: 0.615 µM
Structure (SMILES): O=C(CCCCCCCOc1cc(O)c2c(=O)cc(-c3ccc(O)cc3)oc2c1)NO

IC50 [2]: > 10 µM
Structure (SMILES): COc1ccc(-c2coc3cc(OCCCCCC(=O)NO)cc(O)c3c2=O)cc1

IC50 [2]: > 10 µM
Structure (SMILES): O=C(COc1cc(O)c2c(=O)cc(-c3ccccc3)oc2c1)NO

IC50 [2]: > 10 µM
Structure (SMILES): O=C(CCCOc1cc(O)c2c(=O)cc(-c3ccccc3)oc2c1)NO

IC50 [2]: > 10 µM
Structure (SMILES): O=C(CCCCCOc1cc(O)c2c(=O)cc(-c3ccc(OCCN4CCCC4)cc3)oc2c1)NO

IC50 [2]: 4530 µM
Structure (SMILES): COc1ccc(-c2cc(=O)c3c(O)cc(OCCCCCC(=O)NO)cc3o2)cc1

IC50 [2]: > 10 µM
Structure (SMILES): COc1ccc(-c2coc3cc(OCCCCCCC(=O)NO)ccc3c2=O)cc1

IC50 [2]: 0.93 µM
Structure (SMILES): O=C(CCCCCCOc1cc(O)c2c(=O)cc(-c3ccc(O)cc3)oc2c1)NO

IC50 [2]: > 10 µM
Structure (SMILES): O=c1cc(-c2ccc(O)cc2)oc2cc(O)cc(O)c12 [APIGENIN]
viability at 10 µM [3]: 89.1%
viability at 10 µM [4]: 90.1%
Activity [5]: 0.02%
Activity [6]: 3.22%
Activity [7]: 4.45%
Activity [8]: 3.22%
Activity [9]: 1.59%
Activity [10]: 8.28%

IC50 [2]: > 10 µM
Structure (SMILES): COc1ccc(-c2cc(=O)c3c(O)cc(OCCCCCCCC(=O)NO)cc3o2)cc1

inhibition [1]: inactive
Structure (SMILES): O=C(CCCCCCC(=O)Nc1ccccc1)NO [VORINOSTAT]
Activity [11]: Active
Activity [12]: Toxic
Activity [13]: 13.4%
Activity [14]: 72.99%
Activity [15]: 8.32%
Activity [16]: 0.356%
Activity [17]: Active
Activity [18]: Non-Toxic
Activity [19]: 48.9%
Activity [20]: Non-Toxic
Activity [21]: 20.1%
Activity [22]: Toxic
Activity [23]: Non-Toxic
IC50 [24]: 2.27 µM
Activity [25]: 18.69%
viability at 5 µM [26]: 35.6%
viability at 5 µM [27]: 53.8%
Activity [28]: 23.63%
IC50 [29]: 2.24 µM
Activity [30]: 25.8%
Activity [31]: 2.08%
Activity [32]: Non-Toxic
Activity [33]: 22.68%
Activity [34]: 53.69%

IC50 [2]: 0.025 µM
Structure (SMILES): CN(C)CCCOc1ccc(-c2cc(=O)c3c(O)cc(OCCCCCCC(=O)NO)cc3o2)cc1

IC50 [2]: 0.133 µM
Structure (SMILES): O=C(CCCCCOc1cc(O)c2c(=O)cc(-c3ccc(OCCN4CCCCC4)cc3)oc2c1)NO

IC50 [2]: > 10 µM
Structure (SMILES): COc1ccc(-c2coc3cc(OCCCCCCCC(=O)NO)cc(O)c3c2=O)cc1

IC50 [2]: 1.68 µM
Structure (SMILES): CN(C)CCOc1ccc(-c2cc(=O)c3c(O)cc(OCCCCCCCC(=O)NO)cc3o2)cc1

IC50 [2]: 5.25 µM
Structure (SMILES): COc1ccc(-c2cc(=O)c3c(O)cc(OCCCCCCC(=O)NO)cc3o2)cc1

IC50 [2]: 0.71 µM
Structure (SMILES): COc1ccc(-c2coc3cc(OCCCCCC(=O)NO)ccc3c2=O)cc1

IC50 [2]: 0.053 µM
Structure (SMILES): CN(C)CCCOc1ccc(-c2cc(=O)c3c(O)cc(OCCCCCCCC(=O)NO)cc3o2)cc1

IC50 [2]: > 10 µM
Structure (SMILES): COc1ccc(-c2coc3cc(OCCCCCCCC(=O)NO)ccc3c2=O)cc1

IC50 [2]: 0.225 µM
Structure (SMILES): CN1CCN(CCOc2ccc(-c3cc(=O)c4c(O)cc(OCCCCCC(=O)NO)cc4o3)cc2)CC1

IC50 [2]: 3.33 µM
Structure (SMILES): O=C(CCCCOc1cc(O)c2c(=O)cc(-c3ccccc3)oc2c1)NO

Structure (SMILES): CN(C)CCCOc1ccc(-c2cc(=O)c3c(O)cc(OCCCCCC(=O)NO)cc3o2)cc1.Cl
IC50 [2]: 0.065 µM
Activity [35]: Toxic
inhibition [36]: Dose-dependent effect
Activity [37]: Toxic

IC50 [2]: 0.088 µM
Structure (SMILES): O=C(CCCCCCOc1cc(O)c2c(=O)cc(-c3ccccc3)oc2c1)NO

Reference: ChEMBL document CHEMBL4765432, “Design and synthesis of novel Flavone-based histone deacetylase inhibitors antagonizing activation of STAT3 in breast cancer” (Eur J Med Chem, 2020)
